Results on one molecule are retold here after patent publication US12539299B2, “Oral formulation of a therapeutic compound” (ARDELYX, INC., priority 2020, dated 2026).

The subject of series [1] is Irritable Bowel Syndrome with Constipation (IBS-C) patients. The note with it: bis-HCl salt form, clinical; cited from earlier work.
Series [2] is described as follows: Dissolution of capsule and tablet prototypes, USP apparatus II (paddle), 75 rpm, 900 mL media, 37° C. Format: physicochemical. The note with it: comparison between forms, prototypes or pH. Here is the method:
FIG. 1: Dissolution of 15 mg tenapanor HCl tablets and tenapanor free base tablets in FeSSIF media pH 5.0. Dissolution method: USP apparatus II (paddle), 75 rpm, 900 mL of media at 37° C. FIG. 2: Dissolution of capsule I, neat tenapanor HCl powder in HPMC capsules (Vcaps® from Capsugel®) in FaSSIF media pH 6.5, FeSSIF media pH 5 and in 0.1N HCl. Dissolution method: USP apparatus II (paddle), 75 rpm, 900 mL of media at 37° C. […] Below are the composition of some of the capsule and tablet formulations as well as maximum dissolution observed in 0.1N HCl, pH 5 FeSSIF media and pH 6 FaSSIF media. Tablets from the same prototype designation differed by tenapanor loading and salt/free-base form but had the same disintegrant, glidant and lubricant excipients in the same % w/w but varied in the % w/w of tenapanor and filler making up the remainder of tablet.

Series [3] deals with animal model of IBS-like colonic hypersensitivity. The note with it: cited from earlier work.
The subject of series [4] is patients with hyperphosphatemia. The note with it: clinical; cited from earlier work.

On to `CN1Cc2c(Cl)cc(Cl)cc2[C@H](c2cccc(S(=O)(=O)NCCOCCOCCNC(=O)NCCCCNC(=O)NCCOCCOCCNS(=O)(=O)c3cccc([C@@H]4CN(C)Cc5c(Cl)cc(Cl)cc54)c3)c2)C1` [tenapanor, 1-[2-[2-[2-[[3-[(4S)-6,8-dichloro-2-methyl-3,4-dihydro-1H-isoquinolin-4-yl]phenyl]sulfonylamino]ethoxy]ethoxy]ethyl]-3-[4-[2-[2-[2-[[3-[(4S)-6,8-dichloro-2-methyl-3,4-dihydro-1H-isoquinolin-4-yl]phenyl]sulfonylamino]ethoxy]ethoxy]ethylcarbamoylamino]butyl]urea], for which the abdominal pain entry in series [1] is “reduce abdominal pain”. For the same molecule, in series [2], the “dissolution, comparison in words” value is on record as “better dissolution at low pH”. In series [3], the “colonic sensory neuronal excitability and TRPV1 currents” value is “normalized colonic sensory neuronal excitability and Transient Receptor Potential Vanilloid 1 (TRPV1) currents”; the visceral hyperalgesia entry is reported as “reduced visceral hyperalgesia”. For the same molecule, the serum phosphate result in series [4] was “lower serum phosphate”.
